According to ChEMBL document CHEMBL3108714, “Bisphenol A binds to Ras proteins and competes with guanine nucleotide exchange: implications for GTPase-selective antagonists” (J Med Chem, 2013):
Activity calls are given as the source filed them. The rule behind the calls is not given here.

Experiments:
GTP-binding protein Rheb [1] = biological target: T1, GTP-binding protein Rheb (Homo sapiens, UniProt Q15382); assay: Inhibition of RHEB in human HeLa cells assessed as decrease in phospho-S6 protein level at 100 uM after 4 hrs by Western blotting analysis; type: cell-based
T1 sequence (Q15382 whole entry): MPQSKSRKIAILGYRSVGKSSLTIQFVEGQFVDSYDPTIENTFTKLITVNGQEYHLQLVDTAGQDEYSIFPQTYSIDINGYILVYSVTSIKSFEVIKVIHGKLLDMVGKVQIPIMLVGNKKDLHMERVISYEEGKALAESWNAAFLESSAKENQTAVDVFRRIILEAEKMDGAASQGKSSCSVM

HeLa [2] = assay: Induction of apoptosis in human HeLa cells assessed as increase in cellular degeneration at >100 uM after 24 hrs by DAPI-staining-based microscopic analysis; type: functional, cell-based
GTPase KRas = GTPase KRas (Homo sapiens, UniProt P01116); assay: Binding affinity to human K-RAS by NMR analysis
GTP-binding protein Rheb [3] = biological target: T1, GTP-binding protein Rheb; assay: Binding affinity to full-length Rheb (unknown origin) by NMR spectroscopic analysis
HeLa [4] = assay: Induction of apoptosis in human HeLa cells assessed as increase in cellular degeneration at 25 to 250 uM after 4 hrs by MTT assay; type: functional, cell-based

**Q.** For `CC(C)(c1ccc(O)cc1)c1ccc(O)cc1` [BISPHENOL A], which inhibition (GTP-binding protein Rheb [1]) is on record?
**A.** inactive

**Q.** And the Activity (HeLa [2])?
**A.** Active

**Q.** What about the Kd (GTPase KRas) of the same molecule?
**A.** 0.6 mM

**Q.** And the Kd (GTP-binding protein Rheb [3])?
**A.** 1.8 mM

**Q.** `Oc1ccc(-c2ccc(O)cc2)cc1` was tested. Which inhibition (GTP-binding protein Rheb [1]) did it give?
**A.** Active

**Q.** And the Activity (HeLa [4])?
**A.** Active

**Q.** What about the inhibition (GTPase KRas) of the same molecule?
**A.** inactive

**Q.** And the Kd (GTP-binding protein Rheb [3])?
**A.** 1.5 mM
